# Laboratory results: publication PMC5951806, “Rapid labelling and covalent inhibition of intracellular native proteins using ligand-directed N-acyl-N-alkyl sulfonamide” (Nature Communications, 2018)
# How the values were obtained:
# Assay in all cases: TMT LC-MSMS of 11-labelled proteins
# Format in all cases: cell-based
# [1] = target: Desmoplakin (DSP) (Homo sapiens, UniProt P15924)
# Source text: (§1) The labelled proteins were enriched by immunoprecipitation with an anti-fluorescein antibody and tryptically digested in gel. Digested peptides were modified with Light- (L-), Medium- (M-), or Heavy- (H-) TMT reagent for samples treated with 11, 11 with PU-H71 (as competitive condition), or DMSO (vehicle), respectively, and mixed in a 1:1:1 ratio for LC-MSMS analysis. We performed three experimental replicates, in which proteins detected and quantified at least twice were selected as identified proteins. According to the related approach of Cravatt et al[44], the proteins having L/H (11/DMSO) ratios >5 were defined as 11-labelled proteins. […] On the basis of these criteria, we identified 6 proteins that react with 11, including three ligand-specific targets (Hsp90α (HSP90AA1), Hsp90β (HSP90AB1), and Grp94 (HSP90B1)) and three off-targets (Trifunctional enzyme subunit α (HADHA), Tubulin-α (TUBA1B), and ADP/ATP translocase 3 (SLC25A6)) (Fig. 5d, e and Supplementary Data 1). […] Grp94, a HSP90 isomer, was previously reported to be a PU-H71 specific target. TRAP-1, another Hsp90 isomer that can bind PU-H71, on the other hand, was not identified as 11-target by our criteria.
# (§2) SKBR3 human breast cancer cells (2.0 × 10^6 cells) were seeded on a 10 cm dish and cultured for 3 days in McCoy’s 5A in a 5% CO2 humidified chamber at 37 °C. […] As competitive experiments, the labelling was conducted in the presence of PU-H71 (10 µM). After labelling, the cells were washed twice with PBS, and lysed with RIPA buffer. […] The supernatant was mixed with chilled acetone and incubated overnight at −80 °C. The protein precipitates were solubilized by sonication in 1 mL of RIPA buffer containing 1% SDS, and then 10-fold diluted with RIPA buffer to reduce SDS concentration to c.a. 0.1%. The protein solution (containing 1 mg of protein) was mixed with Protein G Sepharose 4 Fast Flow (GE Healthcare) and rotated at 4 °C for 1 h. After removal of the beads, the remaining supernatant was mixed with anti-fluorescein antibody (Abcam, ab19491, 7:10000) and rotated at 4 °C for 1 h, followed by addition of fresh Protein G Sepharose 4 Fast Flow and further incubation at 4 °C for 4 h. The beads were washed five times with RIPA buffer and once with PBS. Proteins were eluted from the beads by addition of 2 × sample buffer containing 100 mM DTT and boiling at 95 °C for 5 min. The samples were subjected to a 7.5% SDS–PAGE gel (Mini-PROTEAN TGX Gels, BioRad), and electrophoresed as the migration distance of dye front is about 10 mm. Each lane was excised (height, 10 mm), and treated with a 47.5% methanol / 47.5% pure water / 5% acetic acid for 20 min, a 50% methanol / 50% pure water for 10 min, and in pure water for 10 min. The gel pieces were dehydrated with 100% acetonitrile, and then swelled with 200 μL of 100 mM TEAB (triethylamine bicarbonate) buffer containing 10 mM DTT and heated at 56 °C for 30 min. The solutions were replaced with 200 µL of 100 mM TEAB buffer containing 55 mM iodoacetamide and incubated for 45 min in the dark. The gel pieces were washed with 100 mM TEAB buffer and dehydrated in acetonitrile. This step was repeated once. The gels were reswelled in 100 mM TEAB buffer containing 10 ng/μL Sequencing Grade Trypsin (Promega) and incubated overnight at 37 °C. To the gels, 50 μL of an extraction solution (50% acetonitrile, 0.1% TFA) was added. After 10 min incubation, the supernatants were collected to new tubes, and this process was repeated twice. Extracted peptides were dried in vacuo and reconstituted with 25 μL of 100 mM TEAB buffer.
# [2] = target: ATP synthase subunit beta, mitochondrial (ATP5B) (Homo sapiens, UniProt P06576)
# Source text: as §1, §2
# [3] = target: T1, Isoform 2 of Fructose-bisphosphate aldolase A (ALDOA) (Homo sapiens, UniProt P04075)
# T1 sequence (P04075 2-364 limits assumed): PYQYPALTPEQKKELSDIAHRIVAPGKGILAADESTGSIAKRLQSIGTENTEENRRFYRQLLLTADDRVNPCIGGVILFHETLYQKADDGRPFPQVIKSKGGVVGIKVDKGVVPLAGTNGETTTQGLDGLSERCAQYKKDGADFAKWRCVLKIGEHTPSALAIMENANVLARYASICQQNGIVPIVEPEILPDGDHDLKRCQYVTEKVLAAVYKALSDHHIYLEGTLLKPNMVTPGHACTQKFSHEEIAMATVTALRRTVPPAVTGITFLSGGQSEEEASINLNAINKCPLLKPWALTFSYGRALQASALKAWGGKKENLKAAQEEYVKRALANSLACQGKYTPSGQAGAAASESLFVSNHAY
# Source text: as §1, §2
# [4] = sheet Merged, SKBR3 cells, 11 0.5 µM 3 h vs DMSO
# [5] = sheet Merged, SKBR3 cells, 11 0.5 µM 3 h vs with PU-H71 10 µM
# Sequence of Desmoplakin (DSP) (P15924 whole entry): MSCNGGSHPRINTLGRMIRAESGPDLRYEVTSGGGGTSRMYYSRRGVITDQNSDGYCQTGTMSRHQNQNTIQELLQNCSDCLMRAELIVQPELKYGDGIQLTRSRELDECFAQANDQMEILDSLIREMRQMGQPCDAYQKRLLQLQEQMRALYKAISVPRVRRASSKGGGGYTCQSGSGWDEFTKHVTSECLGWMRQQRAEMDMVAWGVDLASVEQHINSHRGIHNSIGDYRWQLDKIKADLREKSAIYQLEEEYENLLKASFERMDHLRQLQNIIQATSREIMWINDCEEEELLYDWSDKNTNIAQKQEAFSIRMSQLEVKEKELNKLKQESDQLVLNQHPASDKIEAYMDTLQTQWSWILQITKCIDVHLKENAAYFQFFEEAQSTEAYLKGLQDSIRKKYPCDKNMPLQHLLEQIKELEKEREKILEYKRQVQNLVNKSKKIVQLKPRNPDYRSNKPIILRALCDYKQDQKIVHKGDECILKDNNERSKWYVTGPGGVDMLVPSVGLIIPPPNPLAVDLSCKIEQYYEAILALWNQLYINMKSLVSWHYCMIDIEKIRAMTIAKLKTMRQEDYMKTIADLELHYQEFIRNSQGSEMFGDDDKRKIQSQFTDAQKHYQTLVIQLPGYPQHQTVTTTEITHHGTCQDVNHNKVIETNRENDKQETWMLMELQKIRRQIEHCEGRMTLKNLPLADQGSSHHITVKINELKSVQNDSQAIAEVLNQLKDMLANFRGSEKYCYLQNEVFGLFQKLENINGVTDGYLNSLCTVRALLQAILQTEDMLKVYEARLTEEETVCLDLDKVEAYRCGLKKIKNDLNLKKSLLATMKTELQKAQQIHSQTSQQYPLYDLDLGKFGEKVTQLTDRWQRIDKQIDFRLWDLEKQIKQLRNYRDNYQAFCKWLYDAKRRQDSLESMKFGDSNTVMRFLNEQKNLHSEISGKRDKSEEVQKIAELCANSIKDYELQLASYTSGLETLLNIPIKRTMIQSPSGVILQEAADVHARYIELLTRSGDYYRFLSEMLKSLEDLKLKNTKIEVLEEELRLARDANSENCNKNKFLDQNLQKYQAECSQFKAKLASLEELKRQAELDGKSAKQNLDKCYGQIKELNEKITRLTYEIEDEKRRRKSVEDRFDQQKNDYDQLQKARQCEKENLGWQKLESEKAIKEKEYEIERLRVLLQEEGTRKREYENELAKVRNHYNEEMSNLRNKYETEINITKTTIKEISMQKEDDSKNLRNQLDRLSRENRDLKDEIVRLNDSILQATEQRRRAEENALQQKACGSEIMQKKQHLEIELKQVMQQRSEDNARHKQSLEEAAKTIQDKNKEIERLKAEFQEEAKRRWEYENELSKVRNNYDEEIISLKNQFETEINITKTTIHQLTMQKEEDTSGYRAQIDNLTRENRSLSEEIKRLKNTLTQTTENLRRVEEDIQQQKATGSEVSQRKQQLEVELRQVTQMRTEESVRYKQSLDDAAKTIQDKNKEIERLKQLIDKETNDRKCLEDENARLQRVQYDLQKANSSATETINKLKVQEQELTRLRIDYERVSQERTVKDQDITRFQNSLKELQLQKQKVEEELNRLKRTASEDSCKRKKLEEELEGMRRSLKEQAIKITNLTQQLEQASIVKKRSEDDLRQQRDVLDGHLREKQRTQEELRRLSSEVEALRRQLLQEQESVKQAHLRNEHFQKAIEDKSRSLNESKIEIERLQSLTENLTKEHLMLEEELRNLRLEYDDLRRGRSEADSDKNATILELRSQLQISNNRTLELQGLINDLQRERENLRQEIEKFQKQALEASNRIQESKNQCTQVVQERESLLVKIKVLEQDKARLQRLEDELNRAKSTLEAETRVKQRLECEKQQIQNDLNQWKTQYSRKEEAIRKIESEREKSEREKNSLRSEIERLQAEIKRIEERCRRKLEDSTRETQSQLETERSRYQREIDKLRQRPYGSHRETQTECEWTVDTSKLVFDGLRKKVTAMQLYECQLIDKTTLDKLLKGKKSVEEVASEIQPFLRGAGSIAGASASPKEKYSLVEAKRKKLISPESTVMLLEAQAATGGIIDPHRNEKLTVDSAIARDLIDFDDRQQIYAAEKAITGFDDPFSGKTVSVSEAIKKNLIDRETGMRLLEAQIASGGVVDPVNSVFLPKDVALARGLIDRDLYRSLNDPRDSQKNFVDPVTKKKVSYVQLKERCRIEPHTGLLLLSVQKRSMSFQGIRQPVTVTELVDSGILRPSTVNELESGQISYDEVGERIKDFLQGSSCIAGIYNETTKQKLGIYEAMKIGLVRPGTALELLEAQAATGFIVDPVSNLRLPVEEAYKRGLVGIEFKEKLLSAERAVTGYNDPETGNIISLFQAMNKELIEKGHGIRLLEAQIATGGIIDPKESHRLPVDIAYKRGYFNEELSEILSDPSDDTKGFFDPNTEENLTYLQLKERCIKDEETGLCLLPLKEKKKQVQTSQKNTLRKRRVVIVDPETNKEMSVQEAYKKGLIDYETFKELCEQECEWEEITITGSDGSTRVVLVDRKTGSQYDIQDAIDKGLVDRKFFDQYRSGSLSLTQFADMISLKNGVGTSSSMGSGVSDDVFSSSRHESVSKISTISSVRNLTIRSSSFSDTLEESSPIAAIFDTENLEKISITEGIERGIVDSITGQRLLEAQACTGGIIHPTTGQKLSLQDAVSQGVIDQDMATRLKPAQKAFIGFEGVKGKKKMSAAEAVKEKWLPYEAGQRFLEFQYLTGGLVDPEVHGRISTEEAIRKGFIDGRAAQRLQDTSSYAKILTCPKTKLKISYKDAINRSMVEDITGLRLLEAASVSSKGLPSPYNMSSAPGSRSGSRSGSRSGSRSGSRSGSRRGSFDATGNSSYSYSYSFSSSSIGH
structure (smiles),measurement,setting,value
CC(=O)Oc1ccc2c(c1)Oc1cc(OC(C)=O)ccc1C21OC(=O)c2cc(C(=O)NCCOCCOCCNC(=O)CCCC(=O)N(CC#N)S(=O)(=O)c3ccc(C(=O)NCCCn4c(Sc5cc6c(cc5I)OCO6)nc5c(N)ncnc54)cc3)ccc21 [compound 11],Abundance Ratio: (11) / (11 with PU-H71),"[1]; Exp3, DSP",0.922
same,Abundance Ratio: (11) / (DMSO),"[1]; Exp3, DSP",1.358
same,Abundances (Grouped): 11,"[1]; Exp3, DSP",44.8
same,Abundances (Grouped): 11 with PU-H71,"[1]; Exp3, DSP",48.6
same,Abundance Ratio: (11) / (11 with PU-H71),"[1]; sheet Exp2, DSP",1.054
same,Abundance Ratio: (11) / (DMSO),"[1]; sheet Exp2, DSP",1.067
same,Abundances (Grouped): 11,"[1]; sheet Exp2, DSP",43.1
same,Abundances (Grouped): 11 with PU-H71,"[1]; sheet Exp2, DSP",40.9
same,Abundance Ratio: (11) / (DMSO),[1]; [4],1.203
same,Abundance Ratio: (11) / (11 with PU-H71),[1]; [5],0.986
same,Abundance Ratio: (11) / (11 with PU-H71),"[2]; sheet Exp2, ATP5B",0.866
same,Abundance Ratio: (11) / (DMSO),"[2]; sheet Exp2, ATP5B",1.928
same,Abundances (Grouped): 11,"[2]; sheet Exp2, ATP5B",141.5
same,Abundances (Grouped): 11 with PU-H71,"[2]; sheet Exp2, ATP5B, with PU-H71",163.4
same,Abundance Ratio: (11) / (DMSO),[2]; [4],1.928
same,Abundance Ratio: (11) / (11 with PU-H71),[2]; [5],0.866
same,Abundance Ratio: (11) / (11 with PU-H71),"[3]; Exp3, ALDOA",0.706
same,Abundance Ratio: (11) / (DMSO),"[3]; Exp3, ALDOA",3.817
same,Abundances (Grouped): 11,"[3]; Exp3, ALDOA",494.7
same,Abundances (Grouped): 11 with PU-H71,"[3]; Exp3, ALDOA",700.9
same,Abundance Ratio: (11) / (DMSO),"[3]; sheet Exp1, SKBR3 cells, 11 0.5 µM 3 h vs DMSO",4.85
same,Abundance Ratio: (11) / (11 with PU-H71),"[3]; sheet Exp1, SKBR3 cells, 11 0.5 µM 3 h vs with PU-H71 10 µM",0.675
same,Abundance Ratio: (11) / (11 with PU-H71),"[3]; sheet Exp2, ALDOA",0.724
same,Abundance Ratio: (11) / (DMSO),"[3]; sheet Exp2, ALDOA",4.699
same,Abundances (Grouped): 11,"[3]; sheet Exp2, ALDOA",363.2
same,Abundances (Grouped): 11 with PU-H71,"[3]; sheet Exp2, ALDOA",502
same,Abundance Ratio: (11) / (DMSO),[3]; [4],4.85
same,Abundance Ratio: (11) / (11 with PU-H71),[3]; [5],0.675
